Structures can show the parent of a compound that is named as a salt.
Target: T1, CA (Human immunodeficiency virus type 1 group M subtype B, UniProt P12493)
T1 construct: a fusion protein of CA with glutathione-S-transferase (CA-GST)
Assay: AlphaScreen: inhibition of CAI-biotin peptide binding to CA-GST
Set-up: species or system HIV-1
Details: inhibition of CAI binding to CA (CA-GST fusion); compounds screened at 0.5-100 µM; read-out: α screen IC50
Description: The AlphaScreen experiments are performed using Perkin Elmer Enspire plate reader in white 96-well ProxiPlates and PBS supplemented with 0.05% Tween20, 2mM DTT, 2% DMSO. First, Streptavidin-coated Donor beads are used to capture the CAI-biotin peptide. In the other solution, a fusion protein of CA with glutathione-S-transferase (CA-GST) is mixed with GSH Acceptor beads. Both mixtures were incubated and then mixed together. To test the ability of prepared organic compounds to inhibit the CAI binding to CA, they are screened at concentrations between 0.5-100 µM and IC50 values are calculated from the influenced signals.
Upon illumination by laser at 680 nm, Donor beads containing the photosensitizer phthalocyanine convert ambient oxygen to an excited form of singlet oxygen ^1O2. Singlet oxygen can within its half-life of ∼ 4µs diffuse approximately 200 nm in solution. If an Acceptor bead is within that proximity, which is mostly upon CA:CAI interaction, energy is transferred from the singlet oxygen to thioxene derivates within the Acceptor and signal at 520 - 620 nm is emitted. […] Table 4: Synthesized and tested compounds

SMILES	IC50
CCN(CC)CCOC(=O)c1ccc(Nc2ccnc(-c3cccnc3)n2)cc1F [AMR-827, 2-(diethylamino)ethyl 2-fluoro-4-{(2-(pyridin-3-yl)pyrimidin-4-yl)amino)benzoate hydrochloride]	> 100 µM
CCOC(=O)c1ccc(Nc2cc(C)nc(-c3cccnc3)n2)cc1 [AMR-778, ethyl 4-((6-methyl-2-pyridin-3-yl)pyrimidin-4-yl)amino)benzoate hydrochloride]	21 µM
Fc1cc(Nc2ccnc(-c3cncc(Br)c3)n2)cc(F)c1F [KP-359, 2-(5-Bromopyridin-3-yl)-N-(3,4,5-trifluorophenyl)pyrimidin-4-amine hydrochloride]	> 100 µM
Fc1cc(Nc2cc(-c3cccnc3Cl)ncn2)cc(F)c1F [KP-373, 6-(2-Chloropyridin-3-yl)-N-(3,4,5-trifluorophenyl)pyrimidin-4-amine hydrochloride]	> 100 µM
Cn1nnc2cc(Nc3cc(-c4cccnc4Cl)ncn3)ccc21 [KP-375, N-[6-(2-Chloropyridin-3-yl)pyrimidin-4-yl]-1-methyl-1H-benzotriazol-5-amine hemihydrochloride]	> 100 µM

Reference: patent EP2769722A1 (Ruprecht-Karls-Universität Heidelberg, priority 2013, dated 2014)
